Measurements as given in US4264774A, “2-Thiophenesulfonyl bromides” (The Dow Chemical Company, priority 1976, dated 1981).
≈ marks a conversion by molar mass, not a printed value.

The compounds below were run on S. aureus (assay: in vitro agar Petri dish dilution test, Sa). Conditions: Staphylococcus aureus, 100% inhibition.
Type: cell-based
Text: (§1) The compounds of this invention have antimicrobial utility. In conventional in vitro agar Petri dish dilution tests, the following compounds and some corresponding art compounds gave 100% inhibition of the following organisms at the indicated concentrations in parts per million.

Row | SMILES | MIC
1 | O=S(=O)(Cl)c1sc(Br)cc1Br [3,5-Br2, reference compound] | > 100 µg/mL
2 | Cc1ccc(S(=O)(=O)Br)s1 [5-CH3] | 100 µg/mL (≈ 415 µM)
3 | O=S(=O)(Br)c1cc(Br)c(Br)s1 [4,5-Br2] | 50 µg/mL (≈ 130 µM)
4 | CCCCc1ccc(S(=O)(=O)Br)s1 [5-butyl] | 500 µg/mL (≈ 1770 µM)
5 | O=S(=O)(Br)c1ccc(Br)s1 [5-Br, 5-Bromo-2-thiophenesulfonyl Bromide] | 500 µg/mL

Each compound was assayed on E. coli (assay: in vitro agar Petri dish dilution test, Ec). Conditions: Escherichia coli, 100% inhibition.
Type: cell-based
Text: as §1

Row | SMILES | MIC
6 | CCCCc1ccc(S(=O)(=O)Cl)s1 [5-butyl, reference compound] | > 500 µg/mL
7 | CCCCc1ccc(S(=O)(=O)Br)s1 [5-butyl] | 500 µg/mL (≈ 1770 µM)
8 | O=S(=O)(Br)c1ccc(Br)s1 [5-Br, 5-Bromo-2-thiophenesulfonyl Bromide] | 500 µg/mL

Each compound was assayed on C. albicans (assay: in vitro agar Petri dish dilution test, Ca). Conditions: Candida albicans, 100% inhibition.
Type: cell-based
Text: as §1

Row | SMILES | MIC
9 | CCCCc1ccc(S(=O)(=O)Cl)s1 [5-butyl, reference compound] | > 500 µg/mL
10 | O=S(=O)(Cl)c1sc(Br)cc1Br [3,5-Br2, reference compound] | > 100 µg/mL
11 | Cc1ccc(S(=O)(=O)Br)s1 [5-CH3] | > 100 µg/mL
12 | O=S(=O)(Br)c1cc(Br)c(Br)s1 [4,5-Br2] | 100 µg/mL (≈ 260 µM)
13 | CCCCc1ccc(S(=O)(=O)Br)s1 [5-butyl] | 500 µg/mL (≈ 1770 µM)
14 | O=S(=O)(Br)c1ccc(Br)s1 [5-Br, 5-Bromo-2-thiophenesulfonyl Bromide] | 100 µg/mL

Each compound was assayed on T. mentagrophytes (assay: in vitro agar Petri dish dilution test, Tm). Conditions: Trichophyton mentagrophytes, 100% inhibition.
Type: cell-based
Text: as §1
Tm = T. mentagrophytes -

Row | SMILES | MIC
15 | CCCCc1ccc(S(=O)(=O)Cl)s1 [5-butyl, reference compound] | 500 µg/mL (≈ 2090 µM)
16 | O=S(=O)(Cl)c1sc(Br)cc1Br [3,5-Br2, reference compound] | > 100 µg/mL
17 | Cc1ccc(S(=O)(=O)Br)s1 [5-CH3] | > 100 µg/mL
18 | O=S(=O)(Br)c1cc(Br)c(Br)s1 [4,5-Br2] | 100 µg/mL (≈ 260 µM)
19 | CCCCc1ccc(S(=O)(=O)Br)s1 [5-butyl] | 100 µg/mL (≈ 353 µM)
20 | O=S(=O)(Br)c1ccc(Br)s1 [5-Br, 5-Bromo-2-thiophenesulfonyl Bromide] | 100 µg/mL

What follows are compounds tested on A. niger (assay: in vitro agar Petri dish dilution test, An). Conditions: Aspergillus niger, 100% inhibition.
Type: cell-based
Text: as §1

Row | SMILES | MIC
21 | CCCCc1ccc(S(=O)(=O)Cl)s1 [5-butyl, reference compound] | > 500 µg/mL
22 | O=S(=O)(Cl)c1sc(Br)cc1Br [3,5-Br2, reference compound] | > 100 µg/mL
23 | Cc1ccc(S(=O)(=O)Br)s1 [5-CH3] | > 100 µg/mL
24 | O=S(=O)(Br)c1cc(Br)c(Br)s1 [4,5-Br2] | 100 µg/mL (≈ 260 µM)
25 | CCCCc1ccc(S(=O)(=O)Br)s1 [5-butyl] | 100 µg/mL (≈ 353 µM)
26 | O=S(=O)(Br)c1ccc(Br)s1 [5-Br, 5-Bromo-2-thiophenesulfonyl Bromide] | 100 µg/mL

The compounds below were run on B. subtilis (assay: in vitro agar Petri dish dilution test, Bs). Conditions: Bacillus subtilis, 100% inhibition.
Type: cell-based
Text: as §1

Row | SMILES | MIC
27 | O=S(=O)(Cl)c1sc(Br)cc1Br [3,5-Br2, reference compound] | > 100 µg/mL
28 | Cc1ccc(S(=O)(=O)Br)s1 [5-CH3] | > 100 µg/mL
29 | O=S(=O)(Br)c1cc(Br)c(Br)s1 [4,5-Br2] | 50 µg/mL (≈ 130 µM)
30 | CCCCc1ccc(S(=O)(=O)Br)s1 [5-butyl] | 100 µg/mL (≈ 353 µM)
31 | O=S(=O)(Br)c1ccc(Br)s1 [5-Br, 5-Bromo-2-thiophenesulfonyl Bromide] | 100 µg/mL

What follows are compounds tested on A. aerogenes (assay: in vitro agar Petri dish dilution test, Aa). Conditions: Klebsiella aerogenes, 100% inhibition.
Type: cell-based
Text: as §1

Row | SMILES | MIC
32 | CCCCc1ccc(S(=O)(=O)Cl)s1 [5-butyl, reference compound] | > 500 µg/mL
33 | O=S(=O)(Cl)c1sc(Br)cc1Br [3,5-Br2, reference compound] | > 100 µg/mL
34 | Cc1ccc(S(=O)(=O)Br)s1 [5-CH3] | > 100 µg/mL
35 | O=S(=O)(Br)c1cc(Br)c(Br)s1 [4,5-Br2] | 100 µg/mL (≈ 260 µM)
36 | CCCCc1ccc(S(=O)(=O)Br)s1 [5-butyl] | 500 µg/mL (≈ 1770 µM)
37 | O=S(=O)(Br)c1ccc(Br)s1 [5-Br, 5-Bromo-2-thiophenesulfonyl Bromide] | 500 µg/mL

The compounds below were run on C. pelliculosa (assay: in vitro agar Petri dish dilution test, Cp). Conditions: Hansenula anomala, 100% inhibition.
Type: cell-based
Text: as §1

Row | SMILES | MIC
38 | O=S(=O)(Cl)c1sc(Br)cc1Br [3,5-Br2, reference compound] | > 100 µg/mL
39 | Cc1ccc(S(=O)(=O)Br)s1 [5-CH3] | > 100 µg/mL
40 | O=S(=O)(Br)c1cc(Br)c(Br)s1 [4,5-Br2] | 100 µg/mL (≈ 260 µM)
41 | CCCCc1ccc(S(=O)(=O)Br)s1 [5-butyl] | 100 µg/mL (≈ 353 µM)
42 | O=S(=O)(Br)c1ccc(Br)s1 [5-Br, 5-Bromo-2-thiophenesulfonyl Bromide] | 100 µg/mL

These compounds were tested on P. pullulans (assay: in vitro agar Petri dish dilution test, Pp). Conditions: 100% inhibition.
Type: cell-based
Text: as §1

Row | SMILES | MIC
43 | CCCCc1ccc(S(=O)(=O)Cl)s1 [5-butyl, reference compound] | > 500 µg/mL
44 | O=S(=O)(Cl)c1sc(Br)cc1Br [3,5-Br2, reference compound] | > 100 µg/mL
45 | Cc1ccc(S(=O)(=O)Br)s1 [5-CH3] | > 100 µg/mL
46 | O=S(=O)(Br)c1cc(Br)c(Br)s1 [4,5-Br2] | 100 µg/mL (≈ 260 µM)
47 | CCCCc1ccc(S(=O)(=O)Br)s1 [5-butyl] | 100 µg/mL (≈ 353 µM)
48 | O=S(=O)(Br)c1ccc(Br)s1 [5-Br, 5-Bromo-2-thiophenesulfonyl Bromide] | 100 µg/mL

What follows are compounds tested on S. typhosa (assay: in vitro agar Petri dish dilution test, St). Conditions: 100% inhibition.
Type: cell-based
Text: as §1

Row | SMILES | MIC
49 | CCCCc1ccc(S(=O)(=O)Cl)s1 [5-butyl, reference compound] | > 500 µg/mL
50 | O=S(=O)(Cl)c1sc(Br)cc1Br [3,5-Br2, reference compound] | > 100 µg/mL
51 | Cc1ccc(S(=O)(=O)Br)s1 [5-CH3] | 50 µg/mL (≈ 207 µM)
52 | O=S(=O)(Br)c1cc(Br)c(Br)s1 [4,5-Br2] | 50 µg/mL (≈ 130 µM)

Same assay, conditions: at 500 ppm

Row | SMILES | inhibition at 500 ppm
53 | CCc1ccc(S(=O)(=O)Cl)s1 [5-C2 H5] | 50%
54 | Cc1ccc(S(=O)(=O)Cl)s1 [5-CH3] | 50%

Each compound was assayed on Pseudomonas Sp. Strain 10 (assay: in vitro agar Petri dish dilution test, Ps 10). Conditions: 100% inhibition.
Type: cell-based
Text: as §1
Ps 10 = Pseudomonas Sp. Strain 10

Row | SMILES | MIC
55 | O=S(=O)(Cl)c1sc(Br)cc1Br [3,5-Br2, reference compound] | > 100 µg/mL
56 | Cc1ccc(S(=O)(=O)Br)s1 [5-CH3] | 50 µg/mL (≈ 207 µM)
57 | O=S(=O)(Br)c1cc(Br)c(Br)s1 [4,5-Br2] | 50 µg/mL (≈ 130 µM)
58 | CCCCc1ccc(S(=O)(=O)Br)s1 [5-butyl] | 500 µg/mL (≈ 1770 µM)
59 | O=S(=O)(Br)c1ccc(Br)s1 [5-Br, 5-Bromo-2-thiophenesulfonyl Bromide] | 100 µg/mL

These compounds were tested on M. phlei (assay: in vitro agar Petri dish dilution test, Mp). Conditions: Mycolicibacterium phlei, 100% inhibition.
Type: cell-based
Text: as §1

Row | SMILES | MIC
60 | O=S(=O)(Br)c1ccc(Br)s1 [5-Br, 5-Bromo-2-thiophenesulfonyl Bromide] | 500 µg/mL

What follows are compounds tested on R. nigricans (assay: in vitro agar Petri dish dilution test, Rn). Conditions: Rhizopus stolonifer, 100% inhibition.
Type: cell-based
Text: as §1

Row | SMILES | MIC
61 | CCCCc1ccc(S(=O)(=O)Br)s1 [5-butyl] | 100 µg/mL (≈ 353 µM)
62 | O=S(=O)(Br)c1ccc(Br)s1 [5-Br, 5-Bromo-2-thiophenesulfonyl Bromide] | 100 µg/mL

What follows are compounds tested on C. IPS (assay: in vitro agar Petri dish dilution test, CI). Conditions: 100% inhibition.
Type: cell-based
Text: as §1

Row | SMILES | MIC
63 | O=S(=O)(Cl)c1sc(Br)cc1Br [3,5-Br2, reference compound] | > 100 µg/mL
64 | Cc1ccc(S(=O)(=O)Br)s1 [5-CH3] | > 100 µg/mL

Each compound was assayed on T. Sp. Madison P42 (assay: in vitro agar Petri dish dilution test, Tr 42). Conditions: 100% inhibition.
Type: cell-based
Text: as §1
Tr 42 = T. Sp. Madison P42

Row | SMILES | MIC
65 | O=S(=O)(Cl)c1sc(Br)cc1Br [3,5-Br2, reference compound] | > 100 µg/mL
66 | Cc1ccc(S(=O)(=O)Br)s1 [5-CH3] | > 100 µg/mL
67 | O=S(=O)(Br)c1cc(Br)c(Br)s1 [4,5-Br2] | 100 µg/mL (≈ 260 µM)
68 | CCCCc1ccc(S(=O)(=O)Br)s1 [5-butyl] | 100 µg/mL (≈ 353 µM)
69 | O=S(=O)(Br)c1ccc(Br)s1 [5-Br, 5-Bromo-2-thiophenesulfonyl Bromide] | 100 µg/mL

What follows are compounds tested on S. aureus (assay: in vitro agar Petri dish dilution test, Sa). Conditions: Staphylococcus aureus.
Type: cell-based

Row | SMILES | inhibition at 500 ppm
70 | CCCCc1ccc(S(=O)(=O)Cl)s1 [5-butyl, reference compound] | 50%

Each compound was assayed on B. subtilis (assay: in vitro agar Petri dish dilution test, Bs). Conditions: Bacillus subtilis.
Type: cell-based

Row | SMILES | inhibition at 500 ppm
71 | CCCCc1ccc(S(=O)(=O)Cl)s1 [5-butyl, reference compound] | 50%

What follows are compounds tested on C. pelliculosa (assay: in vitro agar Petri dish dilution test, Cp). Conditions: Hansenula anomala.
Type: cell-based

Row | SMILES | inhibition at 500 ppm
72 | CCCCc1ccc(S(=O)(=O)Cl)s1 [5-butyl, reference compound] | 50%
